Common to all, as to type: cell-based
Test [1] concerns Pseudomonas aeruginosa. The test is described as follows: MIC and synergistic index of MIT + BBIT in Müller-Hinton broth, 72 h/25° C. The note with it: for Synergistic index Qa/QA + Qb/QB: BBIT MIC of 500 ppm used as basis; for MIC value: only one biocide employed. The procedure:
(§1) The synergistic index is calculated by the method of F. C. Kull et al., Applied Microbiology, vol. 9 (1961), p. 538. Here, the synergistic index is calculated using the following formula: Synergistic index SI=Qa/QA+Qb/QB.
(§2) If the synergistic index has a value of above 1, this means that antagonism is present. If the synergistic index assumes a value of 1, this means that an additive effect of the two biocides exists. If the synergistic index assumes a value of less than 1, this means that synergism of the two biocides exists.
(§3) Again, the experimental batches contained a Müller-Hinton broth as the nutrient medium. The cell density was 10^6 cells/ml. The incubation time was 72 hours at 25° C. Each sample was incubated in a shaker-incubator at 120 rpm.

Test [2] has as its system Pseudomonas aeruginosa. In words: MIC and synergistic index of MIT + BNP in Müller-Hinton broth, 72 h/25° C. The note with it: for MIC: Pseudomonas aeruginosa. The protocol:
as §1, §2, §3

Test [3] has as its system Pseudomonas aeruginosa. In words: MIC and synergistic index of MIT + HCHO in Müller-Hinton broth, 96 h/25° C. The note with it: for MIC: Pseudomonas aeruginosa; for Synergistic index Qa/QA + Qb/QB: method of Kull. The protocol: In addition to the biocide component and water, the aqueous mixtures also comprised a nutrient medium, viz. a commercially available Müller-Hinton broth. The cell density was 10^6 cells/ml. The incubation time was 96 hours at 25° C. Each sample was incubated in a shaker-incubator at 120 rpm.
as §1, §2

For test [4], the system named is Pseudomonas aeruginosa. In words: MIC and synergistic index of MIT + PMG in Müller-Hinton broth, 48 h/25° C. The note with it: for MIC value: only one biocide employed. The procedure:
as §1, §2
Again, the experimental batches contained a Müller-Hinton broth as the nutrient medium. The cell density was 10^6 cells/ml. The incubation time was 48 hours at 25° C. Each sample was incubated in a shaker-incubator at 120 rpm.

The subject of test [5] is Pseudomonas aeruginosa. In words: MIC and synergistic index of MIT + OPP in Müller-Hinton broth, 72 h/25° C. The note with it: for MIC: Pseudomonas aeruginosa, 72 h. The procedure:
as §1, §2, §3

Test [6] has as its system Pseudomonas aeruginosa. The test is described as follows: MIC and synergistic index of MIT + ZnPy in Müller-Hinton broth, 72 h/25° C. The note with it: for MIC value: only one biocide employed. The procedure: as §1, §2, §3
Test [7] deals with Pseudomonas aeruginosa. The test is described as follows: MIC and synergistic index of MIT + NaPy in Müller-Hinton broth, 96 h/25° C. The note with it: for MIC value: only one biocide employed. The procedure: as §1, §2
Again, the experimental batches contained a Müller-Hinton broth as the nutrient medium. The cell density was 10^6 cells/ml. The incubation time was 96 hours at 25° C. Each sample was incubated in a shaker-incubator at 120 rpm.

In test [8] the test system is Pseudomonas aeruginosa. In words: MIC and synergistic index of MIT + HMBIT in Müller-Hinton broth, 48 h/30° C. The note with it: for MIC value: biocide used alone, 48 hours at 30° C. The procedure: as §1, §2
Again, the experimental batches contained a Müller-Hinton broth as nutrient medium. The cell density was 10^6 microorganisms/ml. […] Each sample was incubated in a shaker-incubator at 120 rpm.

The subject of test [9] is Pseudomonas aeruginosa. In words: MIC and synergistic index of MIT + BAC in Müller-Hinton broth, 48 h/25° C. To be noted: for MIC value: biocide used alone. The procedure:
as §1, §2
Again, the experimental batches contained a Müller-Hinton broth as nutrient medium. The cell density was 10^6 microorganisms/ml. The incubation time was 48 hours at 25° C. Each sample was incubated in a shaker-incubator at 120 rpm.

[10] abbreviates: Pseudomonas aeruginosa, incubation 48 h/25° C.

This is an account of results in patent US8323674B2, “Synergistic biocide composition comprising 2-methylisothiazoline-3-one” (Thor GmbH, priority 2000, dated 2012).

`CCCCn1sc2ccccc2c1=O` [BBIT, N-butyl-1,2-benzoisothiazolin-3-one]: in the test with Pseudomonas aeruginosa [1], the “MIC at Total concentration MIT + BBIT Qa + Qb” value is 500 ppm, the “Synergistic index Qa/QA + Qb/QB” value is on record as 1.00 and the MIC value entry is “over 500 ppm”. Besides, the Qb/QB in the test on Pseudomonas aeruginosa [1] (QB = 500 ppm used as basis) is recorded as 1.00. In addition, the “MIC at BBIT concentration Qb” value with Pseudomonas aeruginosa [1] (for BBIT alone 500 ppm used as the basis for the calculation) was 500 ppm.

Turning to `O=[N+]([O-])C(Br)(CO)CO` [BNP, 2-bromo-2-nitro-1,3-propanediol], the Qb/QB with Pseudomonas aeruginosa [2] turned out to be 1.00. Also, in the test on Pseudomonas aeruginosa [2], the “Synergistic index Qa/QA + Qb/QB” value was 1.00. For the same molecule, the MIC in the test with Pseudomonas aeruginosa [2] (only one biocide employed, read-out: MIC value) was determined as 20 µg/mL; in the test with Pseudomonas aeruginosa [2] (read-out: MIC at BNP concentration Qb), 20 µg/mL; in the test with Pseudomonas aeruginosa [2] (read-out: MIC at Total concentration of MIT + BNP Qa + Qb), 20 µg/mL.

Turning to `C=O` [HCHO, formaldehyde], the Qb/QB in the test on Pseudomonas aeruginosa [3] came out at 1.00. Further, the MIC in the test with Pseudomonas aeruginosa [3] (only one biocide used, read-out: MIC value) was determined as 100 µg/mL; in the test with Pseudomonas aeruginosa [3] (read-out: MIC at HCHO concentration Qb), 100 µg/mL; with Pseudomonas aeruginosa [3] (read-out: MIC at Total concentration of MIT + HCHO Qa + Qb), 100 µg/mL. Besides, the “Synergistic index Qa/QA + Qb/QB” value in the test on Pseudomonas aeruginosa [3] was 1.00.

Consider `Cn1sccc1=O` [MIT, 2-methylisothiazolin-3-one], for which the “MIC at MIT concentration Qa” value was 60 ppm with Pseudomonas aeruginosa [3]; 40 ppm in the test on Pseudomonas aeruginosa [2]; 40 ppm in the test on Pseudomonas aeruginosa [4]; 40 ppm in the test with Pseudomonas aeruginosa [5] (72 h/25° C.); 40 ppm in the test with Pseudomonas aeruginosa [6] (72 h/25° C.); 60 ppm in the test with Pseudomonas aeruginosa [7]. The “MIC at MIT concentration Qa” value came to 40 ppm in the test with Pseudomonas aeruginosa [1]; 50 ppm in the test on Pseudomonas aeruginosa [8]; 40 ppm with Pseudomonas aeruginosa [9] (MIT share of the MIC of the MIT + BAC mixture, Pseudomonas aeruginosa, incubation 48 h/25° C.). In addition, the “MIC at Total concentration of MIT + HCHO Qa + Qb” value in the test on Pseudomonas aeruginosa [3] was 60 ppm. Also, the Qa/QA in the test with Pseudomonas aeruginosa [3], in the test on Pseudomonas aeruginosa [2], with Pseudomonas aeruginosa [4], with Pseudomonas aeruginosa [5] (72 h/25° C.), with Pseudomonas aeruginosa [6] (72 h/25° C.) and in the test with Pseudomonas aeruginosa [7] was 1.00 in each case. Moreover, the Qa/QA with Pseudomonas aeruginosa [1] is listed as 1.00; in the test on Pseudomonas aeruginosa [8], 1.00; in the test on Pseudomonas aeruginosa [9] (MIT concentration in mixture at MIC / MIC of MIT alone (40 ppm), 48 h/25° C.) it was 1.00. Moreover, the “Synergistic index Qa/QA + Qb/QB” value in the test with Pseudomonas aeruginosa [3], with Pseudomonas aeruginosa [2], with Pseudomonas aeruginosa [4], with Pseudomonas aeruginosa [5] (72 h/25° C.), in the test on Pseudomonas aeruginosa [6] and in the test with Pseudomonas aeruginosa [7] was 1.00 throughout. Besides, the “Synergistic index Qa/QA + Qb/QB” value with Pseudomonas aeruginosa [1], in the test with Pseudomonas aeruginosa [8] and in the test with Pseudomonas aeruginosa [9] (setting [10]) was 1.00 in each case. The MIC value in the test on Pseudomonas aeruginosa [3] (only one biocide used) turned out to be 60 ppm; in the test on Pseudomonas aeruginosa [2] (only one biocide employed) it was 40 ppm; with Pseudomonas aeruginosa [4], 40 ppm; in the test on Pseudomonas aeruginosa [5] (only one biocide employed, 72 h/25° C.), 40 ppm; with Pseudomonas aeruginosa [6] (72 h/25° C.) it was 40 ppm; with Pseudomonas aeruginosa [7] it was 60 ppm. The MIC value with Pseudomonas aeruginosa [1] turned out to be 40 ppm; with Pseudomonas aeruginosa [8] it was 50 ppm; in the test on Pseudomonas aeruginosa [9] (48 h/25° C.), 40 ppm. The “MIC at Total concentration of MIT + BNP Qa + Qb” value in the test on Pseudomonas aeruginosa [2] is on record as 40 ppm. In the test with Pseudomonas aeruginosa [4], the “MIC at Total concentration MIT + PMG Qa + Qb” value was 40 ppm. For the same molecule, the “MIC at Total concentration MIT + OPP Qa + Qb” value with Pseudomonas aeruginosa [5] (72 h/25° C.) is on record as 40 ppm. Further, the “MIC at Total concentration MIT + ZnPy Qa + Qb” value in the test with Pseudomonas aeruginosa [6] (72 h/25° C.) was found to be 40 ppm. Also, in the test with Pseudomonas aeruginosa [7], the “MIC at Total concentration MIT + NaPy Qa + Qb” value turned out to be 60 ppm. Further, the “MIC at Total concentration MIT + BBIT Qa + Qb” value in the test with Pseudomonas aeruginosa [1] amounted to 40 ppm. The “MIC at Total concentration MIT + HMBIT Qa + Qb” value in the test on Pseudomonas aeruginosa [8] was determined as 50 ppm. The “MIC at Total concentration MIT + BAC Qa + Qb” value in the test on Pseudomonas aeruginosa [9] (setting [10]) turned out to be 40 ppm.

As to `[Na+].[O-][n+]1ccccc1[S-]` [NaPy, sodium pyrithione], in the test on Pseudomonas aeruginosa [7], the “MIC at NaPy concentration Qb” value came out at 200 ppm, the “MIC at Total concentration MIT + NaPy Qa + Qb” value is on record as 200 ppm, the Qb/QB stood at 1.00 and the “Synergistic index Qa/QA + Qb/QB” value is given as 1.00. Moreover, the MIC value in the test with Pseudomonas aeruginosa [7] was determined as 200 ppm.

Consider `Oc1ccccc1-c1ccccc1` [OPP, o-phenylphenol], for which, in the test on Pseudomonas aeruginosa [5] (72 h/25° C.), the Qb/QB came out at 1.00. Moreover, in the test on Pseudomonas aeruginosa [5] (72 h/25° C.), the “Synergistic index Qa/QA + Qb/QB” value worked out at 1.00. Moreover, the MIC in the test on Pseudomonas aeruginosa [5] (read-out: MIC at OPP concentration Qb), with Pseudomonas aeruginosa [5] (read-out: MIC at Total concentration MIT + OPP Qa + Qb) and in the test with Pseudomonas aeruginosa [5] (read-out: MIC value) was 750 µg/mL in each case.

As to “N-hydroxymethyl-1,2-benzoisothiazolin-3-one [HMBIT]”, in the test on Pseudomonas aeruginosa [8], the “MIC at HMBIT concentration Qb” value worked out at 150 ppm, the “MIC at Total concentration MIT + HMBIT Qa + Qb” value is listed as 150 ppm, the Qb/QB was 1.00 and the “Synergistic index Qa/QA + Qb/QB” value is on record as 1.00. Besides, in the test on Pseudomonas aeruginosa [8], the MIC value is given as 150 ppm.

Take dimethylbenzylalkonium chloride [BAC]: the Qb/QB in the test on Pseudomonas aeruginosa [9] (BAC concentration in mixture at MIC / MIC of BAC alone (80 ppm), 48 h/25° C.) is recorded as 1.00. For the same molecule, the “MIC at BAC concentration Qb” value in the test on Pseudomonas aeruginosa [9] (BAC share of the MIC of the MIT + BAC mixture, Pseudomonas aeruginosa, incubation 48 h/25° C.) stood at 80 ppm. In the test with Pseudomonas aeruginosa [9] (setting [10]), the “MIC at Total concentration MIT + BAC Qa + Qb” value was 80 ppm and the “Synergistic index Qa/QA + Qb/QB” value was 1.00. For the same molecule, in the test on Pseudomonas aeruginosa [9] (48 h/25° C.), the MIC value was 80 ppm.

With polyhexamethylenebiguanide [PMG], in the test with Pseudomonas aeruginosa [4], the “MIC at PMG concentration Qb” value was 30 ppm, the “MIC at Total concentration MIT + PMG Qa + Qb” value is recorded as 30 ppm, the Qb/QB was 1.00 and the “Synergistic index Qa/QA + Qb/QB” value is listed as 1.00. Moreover, the MIC value in the test with Pseudomonas aeruginosa [4] worked out at 30 ppm.

Take zinc pyrithione [ZnPy]: in the test on Pseudomonas aeruginosa [6] (72 h/25° C.), the “MIC at Total concentration MIT + ZnPy Qa + Qb” value was 100 ppm and the MIC value result is given as “over 100 ppm”. Further, the Qb/QB with Pseudomonas aeruginosa [6] (72 h/25° C., QB = 100 ppm used as basis) was 1.00. In addition, the “Synergistic index Qa/QA + Qb/QB” value in the test on Pseudomonas aeruginosa [6] (72 h/25° C., ZnPy MIC of 100 ppm used as basis) is 1.00. Also, in the test with Pseudomonas aeruginosa [6] (72 h/25° C., for ZnPy alone 100 ppm used as the basis for the calculation), the “MIC at ZnPy concentration Qb” value is recorded as 100 ppm.
